The values that follow come from ChEMBL document CHEMBL1909046, “DrugMatrix in vitro pharmacology data”.

Experiment [1] is described as follows: DRUGMATRIX: Sodium/nucleoside co-transporter radioligand binding (ligand: nitrobenzylthioinosine). Format: cell membranes, Cavia porcellus, Dunkin-Hartley, Cerebral cortex, Membrane. Conditions: Not Active = under 50% inhibition at 10 µM.
Experiment [2] addresses Aldo-keto reductase family 1 member B1 (Rattus norvegicus, UniProt P07943). Description: biochemical. Type of experiment: tissue-based, Lens of camera-type eye.
Experiment [3] concerns the target 5-hydroxytryptamine receptor 6 (Homo sapiens, UniProt P50406). Format: cell membranes, HeLa, Membrane. Further: in other assays of this panel Not Active means under 50% inhibition at 10 µM.
The target in another experiment is Substance-P receptor (Homo sapiens, UniProt P25103). Type of experiment: cell membranes, Membrane. Conditions: cho. Further: in other assays of this panel Not Active means under 50% inhibition at 10 µM.
The next experiment concerns the target T1, Thromboxane-A synthase (Homo sapiens, UniProt P24557).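 Further: enzyme inhibition assay with PGH2 supplied as substrate; in other assays of this panel Not Active means under 50% inhibition at 10 µM.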
T1 sequence (P24557 whole entry): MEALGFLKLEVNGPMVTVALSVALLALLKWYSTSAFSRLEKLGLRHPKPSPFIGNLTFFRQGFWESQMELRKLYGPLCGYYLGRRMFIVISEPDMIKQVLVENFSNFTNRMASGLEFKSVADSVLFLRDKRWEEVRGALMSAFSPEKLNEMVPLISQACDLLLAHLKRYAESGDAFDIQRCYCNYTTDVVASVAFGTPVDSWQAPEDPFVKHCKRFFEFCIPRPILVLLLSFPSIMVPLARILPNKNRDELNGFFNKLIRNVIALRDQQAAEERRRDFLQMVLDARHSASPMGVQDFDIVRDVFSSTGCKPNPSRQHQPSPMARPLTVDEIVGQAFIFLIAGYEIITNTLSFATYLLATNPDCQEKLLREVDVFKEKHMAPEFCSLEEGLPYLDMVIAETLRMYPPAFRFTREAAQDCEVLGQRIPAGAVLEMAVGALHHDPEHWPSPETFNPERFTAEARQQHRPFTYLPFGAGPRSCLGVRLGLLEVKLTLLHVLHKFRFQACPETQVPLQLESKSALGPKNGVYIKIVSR
Put plainly: biochemical. Format: tissue-based, Platelet. Conditions: platelet.

Experiment [4] has as its target Epidermal growth factor receptor (Homo sapiens, UniProt P00533). Description: DRUGMATRIX: Protein Tyrosine Kinase, EGF Receptor enzyme inhibition (substrate: Poly(Glu:Tyr)). Type of experiment: cell-based, Insect cells. Conditions: insect cells; Not Active = under 50% inhibition at 10 µM.

pIC50, pKi: −log10 of the molar value.

Sequence of 5-hydroxytryptamine receptor 6 (P50406 whole entry): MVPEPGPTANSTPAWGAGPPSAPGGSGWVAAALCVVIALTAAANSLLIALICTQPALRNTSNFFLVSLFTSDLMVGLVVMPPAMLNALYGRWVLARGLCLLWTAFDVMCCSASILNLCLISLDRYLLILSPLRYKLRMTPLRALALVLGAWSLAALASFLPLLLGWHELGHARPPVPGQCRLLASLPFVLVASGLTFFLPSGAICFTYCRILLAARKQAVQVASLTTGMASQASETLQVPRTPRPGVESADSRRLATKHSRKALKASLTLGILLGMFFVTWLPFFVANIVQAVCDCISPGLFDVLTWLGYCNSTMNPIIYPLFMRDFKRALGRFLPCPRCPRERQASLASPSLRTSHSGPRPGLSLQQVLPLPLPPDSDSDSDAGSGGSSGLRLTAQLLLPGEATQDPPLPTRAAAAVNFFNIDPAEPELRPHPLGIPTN
Sequence of Substance-P receptor (P25103 whole entry): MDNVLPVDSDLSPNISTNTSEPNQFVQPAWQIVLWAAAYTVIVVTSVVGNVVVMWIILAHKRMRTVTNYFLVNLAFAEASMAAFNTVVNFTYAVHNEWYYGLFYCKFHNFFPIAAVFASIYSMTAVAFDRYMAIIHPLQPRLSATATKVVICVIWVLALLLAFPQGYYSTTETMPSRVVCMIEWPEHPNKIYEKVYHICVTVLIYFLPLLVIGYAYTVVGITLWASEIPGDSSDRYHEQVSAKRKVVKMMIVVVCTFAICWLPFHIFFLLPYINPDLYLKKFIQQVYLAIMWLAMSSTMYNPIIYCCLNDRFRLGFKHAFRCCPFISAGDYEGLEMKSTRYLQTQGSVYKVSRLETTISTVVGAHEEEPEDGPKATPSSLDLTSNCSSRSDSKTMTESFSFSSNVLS

In the case of `COc1ccc(Cl)cc1C(=O)NCCc1ccc(S(=O)(=O)NC(=O)NC2CCCCC2)cc1` [GLYBURIDE], the IC50 result (in experiment [1]; in experiment [2]; in experiment [3] (hela); against Substance-P receptor; on Thromboxane-A synthase; in experiment [4]) was “Not Active” throughout. The Ki result in experiment [1] is “Not Active”.
Regarding `COC(=O)Nc1nc2ccc(Sc3ccccc3)cc2[nH]1` [FENBENDAZOLE], the IC50 entry (in experiment [1]; in experiment [2]; in experiment [3] (hela); at Substance-P receptor; against Thromboxane-A synthase; in experiment [4]) was “Not Active” in each case. In addition, the Ki entry in experiment [1] was “Not Active”.
Consider `CNC[C@H](O)c1ccc(O)c(O)c1` [EPINEPHRINE], for which the IC50 result (in experiment [1]; in experiment [2]; in experiment [3] (hela); at Substance-P receptor; at Thromboxane-A synthase; in experiment [4]) was “Not Active” each time. In addition, in experiment [1], the Ki entry was “Not Active”.
For the molecule `C=CCO` [ALLYL ALCOHOL], the IC50 entry (in experiment [1]; in experiment [2]; in experiment [3] (hela); against Substance-P receptor; at Thromboxane-A synthase; in experiment [4]) was “Not Active” in each case. For the same molecule, the Ki result in experiment [1] is recorded as “Not Active”.
Take CARBOXYMETHYLCELLULOSE: the IC50 result (in experiment [1]; in experiment [2]; in experiment [3] (hela); on Substance-P receptor; at Thromboxane-A synthase; in experiment [4]) was “Not Active” throughout. The Ki result (in experiment [1]; in experiment [2]; in experiment [3] (hela); at Substance-P receptor; on Thromboxane-A synthase; in experiment [4]) was “Not Active” in each case.
Consider `C=CCN1CC[C@]23c4c5ccc(O)c4O[C@H]2/C(=N/N=C2\CC[C@@]4(O)[C@H]6Cc7ccc(O)c8c7[C@@]4(CCN6CC=C)[C@H]2O8)CC[C@@]3(O)[C@H]1C5` [NALOXONAZINE], for which the IC50 result (in experiment [1]; in experiment [2]; in experiment [3] (hela); at Substance-P receptor; against Thromboxane-A synthase; in experiment [4]) was “Not Active” throughout. In experiment [1], the Ki result was “Not Active”.
For the molecule `Cc1ccnc2c1NC(=O)c1cccnc1N2C1CC1` [NEVIRAPINE], the IC50 result (in experiment [1]; in experiment [2]; in experiment [3] (hela); against Substance-P receptor; on Thromboxane-A synthase; in experiment [4]) was “Not Active” throughout. For the same molecule, the Ki result in experiment [1] was “Not Active”.
For the molecule `NCC(CC(=O)O)c1ccc(Cl)cc1` (stereo not drawn) [BACLOFEN], the IC50 entry (in experiment [1]; in experiment [2]; in experiment [3] (hela); against Substance-P receptor; against Thromboxane-A synthase; in experiment [4]) was “Not Active” throughout. Besides, in experiment [1], the Ki result was “Not Active”.
Consider `CO[C@H]1O[C@@H]2O[C@@]3(C)CC[C@H]4[C@H](C)CC[C@@H]([C@H]1C)[C@@]24OO3`, for which the IC50 result (in experiment [1]; in experiment [2]; in experiment [3] (hela); against Substance-P receptor; against Thromboxane-A synthase; in experiment [4]) was “Not Active” in each case. The Ki result in experiment [1] is given as “Not Active”.
The pIC50 is the IC50 on a negative log10 scale, so that one unit is a factor of ten. One may read the pKi as −log10 of the Ki, conventionally taken in molar units. As for `CC(CN1c2ccccc2Sc2ccccc21)N(C)C` (stereo not drawn) [PROMETHAZINE], the IC50 entry (in experiment [1]; in experiment [2]; at Substance-P receptor; at Thromboxane-A synthase; in experiment [4]) was “Not Active” each time. In addition, the Ki entry in experiment [1] is “Not Active”. Also, the pIC50 in experiment [3] (read-out: IC50) is 5.61. For the same molecule, the pKi in experiment [3] (read-out: Ki) was 5.95.
Regarding `O=C(O)CNCP(=O)(O)O` [GLYPHOSATE], the IC50 result (in experiment [1]; in experiment [2]; in experiment [3] (hela); against Substance-P receptor; against Thromboxane-A synthase; in experiment [4]) was “Not Active” throughout. The Ki entry in experiment [1] is reported as “Not Active”.
